Test results: patent US20150183791A1, “IMIDAZO[1,2-b]PYRIDAZINE-BASED COMPOUNDS, COMPOSITIONS COMPRISING THEM, AND METHODS OF THEIR USE” (LEXICON PHARMACEUTICALS, INC., priority 2013, published 2015)

What follows are compounds tested against AAK1 (full-length human protein) (Homo sapiens, UniProt Q2M2I8) (assay: P81 filter plate assay). Conditions: 0.2 nM-scale full-length human AAK1, Mu2 substrate, 33P-ATP, one hour at room temperature; class symbols.
AAK1 (full-length human protein), sequence (Q2M2I8 1-863 isoform Q2M2I8-2): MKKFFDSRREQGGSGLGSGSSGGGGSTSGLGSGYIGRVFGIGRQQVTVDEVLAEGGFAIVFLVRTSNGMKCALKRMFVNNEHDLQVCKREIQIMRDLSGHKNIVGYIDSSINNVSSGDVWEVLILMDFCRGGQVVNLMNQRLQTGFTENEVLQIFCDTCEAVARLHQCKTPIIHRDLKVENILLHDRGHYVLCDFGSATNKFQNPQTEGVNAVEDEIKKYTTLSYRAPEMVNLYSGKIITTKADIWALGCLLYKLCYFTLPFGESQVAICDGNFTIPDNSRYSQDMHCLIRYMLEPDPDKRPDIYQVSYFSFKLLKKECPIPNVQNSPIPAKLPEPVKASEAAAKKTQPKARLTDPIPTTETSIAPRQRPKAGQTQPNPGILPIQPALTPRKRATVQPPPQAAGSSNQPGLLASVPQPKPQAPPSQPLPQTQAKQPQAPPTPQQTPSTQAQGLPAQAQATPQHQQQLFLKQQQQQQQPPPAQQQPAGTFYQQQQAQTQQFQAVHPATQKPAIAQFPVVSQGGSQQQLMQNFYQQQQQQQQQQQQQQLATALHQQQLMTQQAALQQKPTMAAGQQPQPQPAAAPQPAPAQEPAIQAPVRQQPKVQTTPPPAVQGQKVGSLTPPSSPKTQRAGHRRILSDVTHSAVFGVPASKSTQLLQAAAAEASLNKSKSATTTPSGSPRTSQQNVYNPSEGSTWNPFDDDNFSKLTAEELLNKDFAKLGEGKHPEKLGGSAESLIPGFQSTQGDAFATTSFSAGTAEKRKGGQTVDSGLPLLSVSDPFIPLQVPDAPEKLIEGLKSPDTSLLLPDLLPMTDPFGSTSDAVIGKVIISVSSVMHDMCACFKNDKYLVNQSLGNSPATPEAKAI
Type: biochemical
Protocol: Compounds were serially diluted into a Labcyte LDV plate (Labcyte, cat# LP-0200) using a Mutiprobe (PerkinElmer) and Biomek FX (Beckman Coulter) so that the highest compound concentration was at 96 μM. Compounds were then pinged (75 nL per well) into a Greiner 384-well reaction plate (Greiner, #781076) using an ECHO 550 Liquid Handler (Labcyte). A total of 12 μl reaction buffer (IMAP buffer containing Tween and DTT, from Molecular Devices) was then added to each well of columns 1 and 13 for the negative controls and 12 μl of 2×AAK1 (0.2 nM full-length human protein, NCBI accession no. NP_055726.2) was added to the remaining wells. Enzyme was then pre-incubated with compound for 10 minutes at room temperature. Reactions were initiated upon Minitrak (PerkinElmer) addition of 12 μl substrate mix containing 2× Mu2 (0.2 μM, full length human protein), 2× cold ATP (2 μM), and 1.3 μCi of hot ^33P-ATP. Reactions proceeded for one hour at room temperature. Meanwhile, Millipore 384-well P81 filter plates (Millipore, catalog # MZPHN0 W10) were placed on a plate washer (Zoom ZW, from Titertek) and pre-wet with 50 μl 1% phosphoric acid. Kinase reactions were then stopped upon addition of 24 μl of 2% phosphoric acid to each well and the Minitrak was then used to transfer 40 μl from each well into the pre-wet Millipore 384-well P81 filter plates. Reaction mixtures were incubated for 10 minutes at room temperature in the P81 plates, followed by washing five times with 100 μl/well of 1% phosphoric acid using the Zoom filter washer. The bottom of each filter plate was sealed followed by addition of 20 μl Microscint 40 to each well, sealing the top of the plates with Flashplate cover, and then waiting one hour until reading on the TopCount (Perkin Elmer).
For `COc1ncccc1-c1cnc2ccc(-c3cnn(CCC(C)C)c3)nn12` [6-(1-Isopentyl-1H-pyrazol-4-yl)-3-(2-methoxypyridin-3-yl)imidazo[1,2-b]pyridazine], the IC50 was no more than 10 nM. For `CC(C)CCn1cc(-c2ccc3nccn3n2)cn1` [6-(1-Isopentyl-1H-pyrazol-4-yl)imidazo[1,2-b]pyridazine], the IC50 was 100 to 1000 nM. Compound `CCOc1ncccc1-c1cnc2ccc(-c3ccn(CCC(C)C)c(=O)c3)nn12` [4-(3-(2-Ethoxypyridin-3-yl)imidazo[1,2-b]pyridazin-6-yl)-1-isopentylpyridin-2(1H)-one] has an IC50 of no more than 10 nM. `Cc1cnc2ccc(-c3ccn(CCC(C)C)c(=O)c3)nn12` [1-Isopentyl-4-(3-methylimidazo[1,2-b]pyridazin-6-yl)pyridin-2(1H)-one] gave an IC50 of no more than 10 nM. In the case of `COc1nc(C)ccc1-c1cnc2ccc(-c3ccn(CCC(C)C)c(=O)c3)nn12` [1-isopentyl-4-(3-(2-methoxy-6-methylpyridin-3-yl)imidazo[1,2-b]pyridazin-6-yl)pyridin-2(1H)-one], the IC50 is reported as no more than 10 nM. `CC(C)(C)Cn1cc(-c2ccc3ncc(Br)n3n2)cn1` [3-Bromo-6-(1-neopentyl-1H-pyrazol-4-yl)imidazo[1,2-b]pyridazine] gave an IC50 of 10 to 100 nM. In the case of `COc1ncccc1-c1cnc2ccc(-c3cnn(C(=O)OC(C)C)c3)nn12` [Isopropyl 4-(3-(2-methoxypyridin-3-yl)imidazo[1,2-b]pyridazin-6-yl)-1H-pyrazole-1-carboxylate], the IC50 is reported as no more than 10 nM. `CC(C)C[C@H](N)Cn1ccc(-c2ccc3ncc(Cl)n3n2)cc1=O` [(S)-1-(2-Amino-4-methylpentyl)-4-(3-chloroimidazo[1,2-b]pyridazin-6-yl)pyridin-2(1H)-one] gave an IC50 of 100 to 1000 nM. `COc1ncccc1-c1cnc2ccc(-c3cnn(CC(C)(C)C)c3)nn12` [3-(2-Methoxypyridin-3-yl)-6-(1-neopentyl-1H-pyrazol-4-yl)imidazo[1,2-b]pyridazine] showed an IC50 of no more than 10 nM. In the case of `COc1ncccc1-c1cnc2ccc(-c3ccn(C[C@@H](N)CC(C)C)c(=O)c3)nn12` [(S)-1-(2-Amino-4-methylpentyl)-4-(3-(2-methoxypyridin-3-yl)imidazo[1,2-b]pyridazin-6-yl)pyridin-2(1H)-one], the IC50 is reported as 10 to 100 nM. Compound `COc1cnccc1-c1cnc2ccc(-c3cccc(C(=O)CCC(C)C)c3)nn12` [1-(3-(3-(3-Methoxypyridin-4-yl)imidazo[1,2-b]pyridazin-6-yl)phenyl)-4-methylpentan-1-one] has an IC50 of no more than 10 nM. Work on `COc1ncc(F)cc1-c1cnc2ccc(-c3ccn(CCC(C)C)c(=O)c3)nn12` [4-(3-(5-Fluoro-2-methoxypyridin-3-yl)imidazo[1,2-b]pyridazin-6-yl)-1-isopentylpyridin-2(1H)-one] yielded an IC50 of no more than 10 nM. In the case of `CC(C)(C)Cn1cc(-c2ccc3ncc(Cl)n3n2)cn1` [3-Chloro-6-(1-neopentyl-1H-pyrazol-4-yl)imidazo[1,2-b]pyridazine], the IC50 is reported as 10 to 100 nM. Compound `CC(C)CCn1cc(-c2ccc3ncc(Br)n3n2)cn1` [3-Bromo-6-(1-isopentyl-1H-pyrazol-4-yl)imidazo[1,2-b]pyridazine] has an IC50 of no more than 10 nM. `Cc1cnc2ccc(-c3ccn(CCC(C)(C)C)c(=O)c3)nn12` [1-(3,3-Dimethylbutyl)-4-(3-methylimidazo[1,2-b]pyridazin-6-yl)pyridin-2(1H)-one] gave an IC50 of 10 to 100 nM.

Same assay, conditions: same assay, given as numeric bound instead of class symbol
For `CC(C)(C)Cn1cc(-c2ccc3nccn3n2)cn1` [6-(1-Neopentyl-1H-pyrazol-4-yl)imidazo[1,2-b]pyridazine], the IC50 was greater than 300 nM. With `CC(C)C[C@H](N)Cn1ccc(-c2ccc3nccn3n2)cc1=O` [(S)-1-(2-Amino-4-methylpentyl)-4-(imidazo[1,2-b]pyridazin-6-yl)pyridin-2(1H)-one] the IC50 was greater than 300 nM. `CC(C)OC(=O)n1cc(-c2ccc3nccn3n2)cn1` [Isopropyl 4-(imidazo[1,2-b]pyridazin-6-yl)-1H-pyrazole-1-carboxylate] gave an IC50 greater than 300 nM. `Cc1cnc2ccc(-c3ccn(C[C@@H](N)CC(C)C)c(=O)c3)nn12` [(S)-1-(2-Amino-4-methylpentyl)-4-(3-methylimidazo[1,2-b]pyridazin-6-yl)pyridin-2(1H)-one] showed an IC50 greater than 300 nM.
